# Experimental data as given in patent publication US20090136968A1, “Novel in vitro methods for studying receptors recognizing volatile compounds” (Chemcom S. A., priority 2005, published 2009).
# Assays:
# [1] = target: T1, mOR-I7 (Mus musculus, UniProt Q9QWU6); experiment: Novel olfactory functional assay (CCBSA), microplate calcium flux (Fluo4, FDSS) on HEK 293T overexpressing mOR-I7; format: cell-based; conditions: for hit / potential ligand of mOR-I7 in screening of 30 odorants: carrier fraction 4 (bOBP and BSA) incubated with 16 μl of 1M odorant, ratio mOR-I7 on Wt, standardized to 1 mM ATP; for hits / potential ligands of mOR-I7 through the 4 screenings / ligands of mOR-I7 in two independent calcium flux screenings of 30 odorants: BSA as carrier; for hits / potential ligands of mOR-I7 through the 4 screenings: calcium flux and cAMP screenings together; for ligands of mOR-I7 in two independent calcium flux screenings of 30 odorants: standardized to 100 μM ATP
# T1 construct: expressed in transfected cells; host or cells: HEK 293T
# T1 sequence (Q9QWU6 1-327): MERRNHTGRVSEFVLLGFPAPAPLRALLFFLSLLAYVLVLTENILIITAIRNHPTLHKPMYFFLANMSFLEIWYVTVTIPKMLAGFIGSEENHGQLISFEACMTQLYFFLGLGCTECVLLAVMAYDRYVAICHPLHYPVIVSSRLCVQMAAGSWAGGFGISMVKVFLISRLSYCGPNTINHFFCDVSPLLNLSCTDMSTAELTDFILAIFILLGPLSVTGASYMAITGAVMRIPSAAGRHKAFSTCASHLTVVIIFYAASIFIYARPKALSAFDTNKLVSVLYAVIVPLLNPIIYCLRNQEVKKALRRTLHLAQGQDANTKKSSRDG
# Method: (§1) A solution of BP including SA, OBP and/or olfactory mucus (see concentration in the text) was incubated in the presence of odorant in a sealed flask for 16 hours at 4° C. (FIG. 3A). Such incubated-BP solution was then used as tested complex on olfactory receptor-expressing cells. Prior to incubation with such complex, cells were incubated for 1 hour with 4 μM Fluo4-AM (Molecular Probe) in the presence of 1 mM probenecid, and then rinsed twice with Fluo4-AM free HBSS buffer. After injection of odorant-BP complex on OR expressing cells, calcium flux was followed by measuring fluorescence at 520 nm ([…]) on FDSS, a plate reader from Hamamatsu Photonics K.K. (Japan) at 25° C.
# In an attempt to be closer to physiological process of olfaction and thereof to increase specificity and sensitivity of the cell-based assay described above, a novel olfactory functional assay was developed. Most of the time, mammalian smells volatile odorant molecules. However in the cell-based assay described above as in most cell-based assays, odorant molecules were injected into aqueous buffer. Such injection may lead to formation of micelles that can alter efficacy and specificity of ligands. Therefore a cell-based assay was developed focusing an a better solubilization of odorants. In summary, in a sealed flask, bovine olfactory mucus was incubated in the presence of an odorant (FIG. 3A). It was hereby tested if an odorant would be trapped and solubilized in that fluid. Thereafter, such solubilized odorant was injected onto cultured-cells overexpressing an olfactory receptor. Activation of this receptor could then be followed by conventional assay including fluorescent (FIGS. 3 B and C) and luminescent calcium assays.
# For this novel assay, mOR-I7 activation was assessed by octanal. A constant volume of olfactory mucus was incubated in the presence of increasing amount of octanal ranging from 0 to 16 μl of a solution of 1M octanal. After 16 hours incubation at 4° C., bovine olfactory mucus was injected on HEK 293T overexpressing mOR-I7. Calcium flux was followed with Fluo4 on FDSS, a plate reader from Hamamatsu Photonics K.K. (Japan).
# Capacity of fraction 4 to fulfil the role of odorant solubilizator was assessed in the newly proposed assay. Screening of 30 odorant molecules (FIG. 5A) was performed on HEK 293T wild type (FIG. 5C) or overexpressing mOR-I7 (FIG. 5B). Fraction 4 was incubated overnight at 4° C. […] These odorants led to at least one fold more activation of HEK 293T overexpressing mOR-I7 than the wild type counterpart. They can be classified into two groups. One group (FIG. 5 E (a) to (e)) gathers molecules that fit the olfactophore 1 depicted in FIG. 5 E (j). They are schematically made of 2 electronegative poles distanced by 6 carbons. They all contain a 6-8 carbon chain ended by an electronegative group as depicted by olfactophore 2 represented in FIG. 5 E (k).
# However this fraction 4 contained two major proteins, bOBP and BSA. Thus the results of said Example could in this approach not rule out any implication of BSA into fraction 4 properties. Therefore the capacity of BSA to solubilize and thereof to enhance the efficacy of odorants in the novel cell based olfactory functional assay as described by the present invention has been tested. To be as close as possible to BSA concentration observed in fraction 4. BSA concentration was set up at 5×10^−6 M for the following experiments (marked by an arrow on FIG. 6 G). Fraction 4 and a solution of fatty acid-free BSA were incubated at 4° C. for 16 hours in the presence of increasing volume of 1M octanal. So-incubated solutions were then applied onto HEK 293T wt or overexpressing mOR-I7. Calcium-flux was followed on a plate reader (Hamamatsu Photonics K.K., Japan) with fluo4 as fluorescent dye (FIG. 6 A to F). […] Such phenomenon is usually observed in such fluorescence assay when increasing ligand concentrations are injected. […]
# [2] = target: T1, mOR-I7; experiment: cAMP level immunoassay (TROPIX) in the novel assay on HEK 293T overexpressing mOR-I7; format: cell-based; conditions: BSA solution incubated with 16 μl of 1 M odorant; 20 minutes incubation
# Method: Similarly to the first step of the fluorescence-based functional assay described above, BP solutions including SA, OBP and/or olfactory mucus (see concentration in the text) were incubated in the presence of odorant in a sealed flask for 16 hours at 4° C. (FIG. 3A). Such odorant-BP complexes were then applied to cultured-cell for 20 minutes at 37° C. cAMP level was then measured using the Tropix kit according to the manufacturer procedures (Applied Biosystem).
# As depicted in FIG. 1, binding of odorant molecule to olfactory receptor triggers a cascade of molecular events. In the most commonly accepted pathway, the first second messenger is cAMP synthesized by adenylate cyclase type III. Therefore, a mean to test olfactory receptor activation is to assess variation of cellular cAMP pool after olfactory receptor activation. It is noteworthy that such assay could be performed in parallel to calcium flux assay described above to validate hits obtained during a screening.
# Specificity of the novel cell based olfactory functional assay according to the present invention was tested following mOR-I7 activation after injection of these three odorants and two non related odorant, vanilline and piperonyl isobutyrate. Olfactory receptor activation was detected by cellular cAMP pool immunoassay. A solution of BSA was incubated overnight at 4° C.
# As discussed above (FIG. 1), activation of olfactory receptor can also be followed through cAMP synthesis. […] Results are expressed as percent of response observed after incubation with 100 μM forskolin, an activator of adenylate cyclases. […] Scheme of the odorant molecules are depicted in FIG. 7E.
# [3] = tested on: hORL-424; experiment: Fluorescent calcium flux assay on HEK 293T overexpressing hORL-424, odorant in assay buffer with or without bovine olfactory mucus; format: cell-based, human
# Method: FIG. 2: Bovine olfactory mucus enhances hORL-424 activation by citronellal. (A and B) Calcium measurement was performed after activation of hORL-424 with citronellal in the presence of different amount of bovine olfactory mucus. 0 to 10 μl of mucus (0 to 10 μg of total protein) have been added to assay buffer. Calcium flux has been followed on FDSS (Hamamatsu Photonics K.K. plate reader, Japan) using Fluo4 as fluorescent dye. Histograms represent fluorescent signal observed in the presence or in the absence of 10 μl of bovine olfactory mucus. (C) Concentration response curve of HEK 293T overexpressing hORL-424 treated with citronellal. Gray boxes represent values obtained in the presence of bovine olfactory mucus. Calcium flux measurements have been performed on FDSS (Hamamatsu Photonics K.K. plate reader, Japan). (D and E) Traces obtained during single cell calcium imaging after addition of 500 μM octanal on HEK 293T overexpressing mOR-I7 in the absence (D) or in the presence of 10 μl of bovine olfactory mucus (E). Fura2 was used as fluorescent dye. Results are expressed as F340/F380 ratiometric measurement.
# as §1
# hORL-424, a human olfactory receptor, was overexpressed in HEK 293T, a […] (Hunter). […]
# [4] = target: T1, mOR-I7; conditions: literature (references); cited from earlier work
SMILES,hit / potential ligand of mOR-I7 in screening of 30 odorants [1],hits / potential ligands of mOR-I7 through the 4 screenings [1],ligands of mOR-I7 in two independent calcium flux screenings of 30 odorants [1],mOR-I7 activation by cellular cAMP pool [2],also measured
COCCc1ccc(O)cc1 [4(2-methoxyethyl)phenol],potential ligands of mOR-I7,,,,hit / potential ligand of mOR-I7 in screening of 30 odorants ([1]; listed as 4-(2-methoxyethyl)-phenol): hits
CCCCCCCO [heptanol],potential ligands of mOR-I7,hits,consistent,,hit / potential ligand of mOR-I7 in screening of 30 odorants ([1]; listed as 1-heptanol): hits
CC(C)C(=O)OCc1ccc2c(c1)OCO2 [piperonyl isobutyrate],,,,did not lead to cAMP synthesis,
CCCCCCCCO [octanol],potential ligands of mOR-I7,hits,consistent,,hit / potential ligand of mOR-I7 in screening of 30 odorants ([1]; listed as 1-octanol): hits
COc1cc(C=O)ccc1O [Vanilline],,,,did not lead to cAMP synthesis,
CC/C=C\CCCCC=O [cis-6-nonenal],potential ligands of mOR-I7,,,,hit / potential ligand of mOR-I7 in screening of 30 odorants ([1]; listed as 6-cis-nonenal): hits
CC(C)=CCCC(C)CC=O (stereo not shown) [citronellal],potential ligands of mOR-I7 and hits,hits,,mOR-I7 ligands,"improvement of hORL-424 activation on addition of bovine olfactory mucus ([3]; bovine olfactory mucus in assay buffer vs absence, fluo4, 96-well plate): approximately 9 folds; concentration necessary to reach maximum activation of hORL-424 ([3]; conventional assay, no mucus): up to 10 mM; concentration sufficient to reach maximum activation of hORL-424 ([3]; olfactory mucus added in the assay buffer): 0.5 mM; known activation of mOR-I7 [4]: activated specifically"
CCCCCCC=O [heptanal],,hits,consistent,mOR-I7 ligands,known activation of mOR-I7 [4]: activated specifically
CC(C)=CCCC(C)CCO (stereo not shown) [citronellol],potential ligands of mOR-I7 and hits,,consistent,,
"CCCCC(=O)C(C)=O [2,3 heptanedione]",potential ligands of mOR-I7 and hits,hits,consistent,,
COc1cc(CCC(C)=O)ccc1O [Vanillyl acetone],potential ligands of mOR-I7 and hits,,,,
